What was measured:
[1] = tested on: rat GH 5′-flanking sequences in rat pituitary GC2 cells; assay: T3 responsiveness of rat GH 5′-flanking sequence-CAT gene fusions transfected into GC2 cells; assay type: cell-based; conditions: for stimulation of CAT activity: GH −235 to −45 fused to tk promoter
Source text: […]. To overcome this problem, a rat prolactin enhancer element^11 was fused proximal to fragments of the rat GH gene containing 181 and 110 bp of 5′ flanking information. […].
To assay 3′ deletions, fragments of the rat Gh gene were fused to the herpes simplex virus thymidine kinase (HSV tk) promoter. A fragment of the Gh gene extending from position −235 to position −45 from the CAP site produced 2.5-and 2.3-fold stimulations of CAT activity when fused to the tk promoter in native and inverse orientation, respectively (FIG. 57). […]. […].
Thyroid hormone responsiveness of various gene fusions containing rat GH 5′-flanking sequences. FIG. 56, Responsiveness of 5′ and 3′ deletions of the rat GH gene. 5′-deleted fragments of the rat GH gene were fused to the CAT gene in a pSV2CAT-based vector^18, in which the SV40 origin of replication and promoter were removed. […]. The illustrated 3′-deleted fragments were fused to a tk promoter fragment, extending from position −197 to position +54 and placed proximal to the CAT gene in the same vector. […]. Error limits represent the standard error of the mean. Each construction was assayed two to five times. An represents SV40 polyadenylation sites. FIG. 58, Messenger RNA transcription initiation site analysis. The diagram indicates the […] primer complimentary to nucleotides 67 to 89 of the CAT coding sequence used to determine the CAP site of transcripts of plasmids containing the tk promoter. GC cells were transfected with test plasmids and hormone treated as described for the experiments presented in panels a and b. Primer extension analysis was performed on 50 micrograms total RNA. Lanes A and B represent the extension product from cells transfected with a plasmid containing the GH fragment extending from positions 235 to 45 from the CAP site fused to the tk promoter. Lanes C and D represent the extension product from cells transfected with a plasmid containing the tk promoter alone. No extension products were observed. […].
Fusions containing the rat prolactin enhancer were made by excising this fragment (corresponding to rat prolactin sequence nucleotide positions 1831-1530) from plasmid pPSS^11 and inserting it in reverse orientation proximal to the 5′ deletions of the growth hormone element. Fusions containing the HSV tk promoter were made by excising fragments of the GH enhancer from the plasmid GPO (ref. 11) and inserting them into the BamHI and SalI sites of a pSV2CAT-based expression vectors proximal to the tk promoter at positions −197 to +54. Alternatively, the GH enhancer was placed proximal to the promoter at positions −107 to +54 in a pUC8-based vector^20 by insertion into the BamHI and SalI polylinker sites. Site-directed mutagenesis of the GH enhancer element was performed by inserting the fragment from 235-45 bp from the CAP site into the BamHI and SalI sites of M13 mp18. A 21-base oligonucleotide was synthesized which corresponded to antisense GH nucleotides −188 to −157, in which nucleotides −177 to −166 were deleted and replaced by an A nucleotide. This oligonucleotide was used to delete bases −177 to −166 in the GH enhancer using the procedure of Kunkel^21. CAT activity was determined by radioassay of methylated chloramphenicol derivatives after thin layer chromatography^19. Primer extension was by the method of Elsholtz, et al.^12

[2] = tested on: rat GH 5′-flanking sequences in rat pituitary GC2 cells; assay: as above; assay type: cell-based; conditions: 5′ deletion to −107 with rat prolactin enhancer
[3] = tested on: hGR; assay: Steroid binding assay ([^3H]DEX) in cytosol of COS cells transfected with hGR or mutants; set-up: species or system human; conditions: steroid-binding capacity as percentage of wild-type hGR
Description: (§1) The cells are then cultured in the presence or absence of hormone. CV-1 cells were used to monitor induction of CAT activity, and COS cells were used to measure steroid-binding capacity and the expression of hGR protein.
COS cells were lysed in hypotonic buffer containing 10 mM Tris-HCl (pH 7.5), 10 mM NaCl, 1 mM EDTA, 5 micrograms/ml antipain, 5 micrograms/ml leupeptin, and 0.5 mM PMSF by Dounce homogenization and centrifuged 10 min. at 15,000×g to yield the cytosolic fraction. Incubations were performed in hypotonic buffer adjusted to 100 mM NaCl and contained 100 micrograms of protein from the cytosolic fraction and 2×10^−8[^3H]DEX (Amersham, 95 Ci/mmol) in total volume of 200 microliters. Nonspecific binding was measured by the addition of 2×10^−6 unlabeled DEX. Reactions were carried out at 0° C. for 2 hr., followed by a 5 min. incubation with 20 microliters of 50% dextran-coated charcoal (10:1 activated charcoal:dextran) and centrifugation at 15,000×g for 2 min. at 4° C. Supernatants were counted by liquid scintillation methods in a Beckman LS-7800 liquid scintillation spectrophotometer. Each assay usually gave 2500-3000 cpm [^3H] labeled steroid; unlabeled DEX competed for 70% of this binding.

[4] = tested on: hGR; assay: hGR functional assay: CAT activity in CV-1 cells cotransfected with pRShGR alpha (or mutant) and pMTVCAT; assay type: cell-based, human; conditions: percentage of wild-type hGR activity; CV-1 cells cultured 2 days with 10 nM DEX
Source text: The assay system and strategy used to study the expression of functional hGR from the cloned cDNA (See Experimental Section I) is shown in FIG. 11. In these experiments, a glucocorticoid-responsive promoter/enhancer element linked to a reporter gene was introduced into a receptor-negative cell. […] For our assay, we chose to use the MTV LTR fused to the sequence coding for chloramphenicol acetyltransferase (CAT) (EC2.3.1.28). […] Cotransfection of pMTVCAT (or pGMCAT) with a receptor expression plasmid provides functional receptors that allow induction of CAT activity upon treatment of the transfected cells with glucocorticoid hormone. In addition, biochemical studies such as steroid binding activity and Western blot analysis of the expressed receptors can be performed simultaneously.
as §1
CAT assays were performed as indicated in Experimental Procedures (See Section II. F.). C, chloramphenicol; AC, 3-acetylchloramphenicol.
The levels of CAT activity were plotted as percentages of the maximal response observe in a particular experiment.
Each plasmid preparation used for transfection was purified using two consecutive CsCl-EtBr equilibrium gradients. […]

| Compound | regulation of CAT expression by T3 ([1]; 5′ deletion to −235 of rat GH gene fused to CAT) | induction of CAT expression by T3 ([1]; 5′-deleted fragment to −181 with rat prolactin enhancer) | increase of correctly initiated CAT mRNA (primer extension) ([1]; 235-45 bp GH fragment fused to tk promoter, 10^−9M T3) | stimulation of CAT activity ([1]; inverse orientation) | stimulation of CAT activity ([1]; native orientation) | stimulation of CAT expression ([1]; construction G29TK) | stimulation of CAT expression (in words) ([1]; construction G293TK, three tandem repeats) | effect on CAT expression (in words) ([1]; mutant G delta 166/177 fused to tk promoter) | stimulation of CAT expression (in words) ([1]; wild-type GH enhancer fused to tk promoter) | T3 regulation of CAT expression (in words) [2] | DEX Binding (%) [3] | CAT Activity (%) [4] |
| --- | --- | --- | --- | --- | --- | --- | --- | --- | --- | --- | --- | --- |
| N[C@@H](Cc1cc(I)c(Oc2ccc(O)c(I)c2)c(I)c1)C(=O)O [T3, 3,5,3′-triiodo-L-thyronine] | 4.6 fold | 2.6 fold | about 4 fold | 2.3 fold | 2.5 fold | 2.9 fold | five-fold | no effect | ninefold | abolished T3 regulation | – | – |
| hGR alpha: wild-type human glucocorticoid receptor, alpha form, 777 amino acids | – | – | – | – | – | – | – | – | – | – | 100% | 100% |
